Experimental data taken from US20240239790A1, “7-Morpholino-1,6-Naphthyridin-5-yl Derivatives and Pharmaceutical Compositions Thereof Useful as DNA-PK Inhibitor” (adMare Therapeutics Society, priority 2021, published 2024).
Where two headings read alike, the source gives them in different places. Marks after values point to notes of the source that are not given here.

Key:
[1] = biological target: T1, DNA-PK phosphorylation at Serine 2056 (Homo sapiens, UniProt P78527); assay: Cellular Assay for Inhibition of DNA-PK Phosphorylation at Serine 2056 in FaDu cells (sandwich ELISA, neocarzinostatin); type: cell-based; conditions: pSer2056 DNA-PK, neocarzinostatin 1 μg/mL, Table 1
T1 construct: FaDu cells were purchased from ATCC; host or cells: FaDu
Outline: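 pSer2056 and total DNA-PK were measured by sandwich ELISA in BCA-normalised FaDu lysates. Cells had 1 h compound exposure (0.3% DMSO), then 2 h with 1 μg/mL final neocarzinostatin. IC50 was fitted (variable slope) to % inhibition scaled against NCS-stimulated and DMSO-only controls.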

[2] = Microsomal Stability Assay, mouse liver microsomes; type: in vitro ADME; conditions: for microsomal CLint at 0.1 uM: male, CD-1, pH 7.4, mouse liver microsomes 0.1 mg/mL, 0.1 uM compound; for Microsomal Stability Mouse % rem. 60 min: mouse liver microsomes
Method: (§1) Samples were then mixed and centrifuged. Supernatants were used for HPLC-MS/MS analysis. […] Peak areas corresponding to the test compound were recorded.

[3] = Microsomal Stability Assay, human liver microsomes; type: in vitro ADME; conditions: for microsomal CLint at 0.1 uM: both sexes, pH 7.4, human liver microsomes 0.1 mg/mL, 0.1 uM compound; for Microsomal Stability Human % rem. 60 min: human liver microsomes
Method: as §1

[4] = Hepatocyte Stability Assay, mouse hepatocytes; type: in vitro ADME; conditions: for hepatocyte CLint at 1 uM: male, CD-1, cryopreserved hepatocytes, pH 7.3, mouse hepatocytes 0.7 million cells per mL, 1 uM compound; for Hepatocyte Stability Mouse % rem. 120 min: mouse hepatocytes
Outline: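 Pooled cryopreserved hepatocytes (male CD-1 mice, ≥10; mixed-gender human donors, ≥10) at 0.7 million viable cells/mL in Krebs-Heinslet buffer pH 7.3, compound 1 uM, ≤0.01% DMSO. Incubated at 37° C./5% CO2 up to 2 h, acetonitrile-quenched; parent peak area by HPLC-MS/MS.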

[5] = Pharmacokinetic study in mice (IV and PO), plasma; type: in vivo, mouse; conditions: for Cmax: read-out: Cmax (5 min); for Rsq: Mouse Plasma, fit of NCA
Method: Pharmacokinetic analysis of compounds was conducted following bolus intravenous (IV) or bolus oral (PO) gavage in mice. Female mice (C57BL/6) in the 17-26 g range were weighed, and then administered an individually prescribed dose volume based on body weight of formulated compound via the intravenous (IV; tail vein) or oral gavage (PO) route (IV 5 mL/kg; PO 10 mL/kg). At selected timepoints post administration, blood was collected into vials with anticoagulant, processed for plasma by centrifugation, and then kept frozen ([…]) until analysis.
The in-vivo study plasma samples were analyzed using Ultra Performance Liquid Chromatography (UPLC) with tandem mass spectrometry (MS/MS) detection in multiple reaction monitoring (MRM) mode. A generic bioanalytical method involving plasma sample extraction and cleanup by protein precipitation with acetonitrile was used followed by UPLC-MS/MS analysis.
A brief example of a generic bioanalytical UPLC-MS/MS method used for analysis of compounds in the in-vivo study plasma samples is as follows. Plasma samples were spiked with internal standard prior to extraction and cleanup by protein precipitation with ice cold acetonitrile containing 0.1% (v/v) ammonium hydroxide at a ratio of 3:1 (solvent:plasma) and centrifuged at 18213 rcf for 15 minutes at 4° C. to pellet precipitates. Aliquots of supernatants were transferred to a 96-well plate and evaporated to dryness at 40° C. under a stream of nitrogen gas. Samples were reconstituted in 50:50 acetonitrile/10 mM ammonium acetate buffer pH 8, mixed thoroughly and analyzed using Ultra Performance Liquid Chromatography (UPLC) with tandem mass spectrometry (MS/MS) detection in multiple reaction monitoring (MRM) mode. Matrix-matched calibration standards and quality control (QC) samples were prepared in naïve C57Bl/6 mouse plasma. The UPLC column used was Waters Acquity UPLC BEH C18 1.7 um, 2.1 mm×50 mm (with guard column). The UPLC mobile phase consisted of: Mobile phase A: 10 mM ammonium acetate in Water pH 8, and Mobile phase B: Acetonitrile. Separation was accomplished with a linear gradient of 5% mobile phase B to 95% mobile phase B in 2 min, and a flow rate of 0.35 mL/min. The MS/MS data acquisition was accomplished using 3 MRM Transitions in ESI+ mode. Parent ion mass 508.37 m/z-to-Daughter ions (m/z) 117.05, 232.13 and 270.22. The quantitation of concentrations in test samples was achieved by matrix-matched calibration with normalization using an internal standard. Data acquisition and analysis were performed using Waters MassLynx software with TargetLynx application manager.
Estimation of PK parameters was performed using independent noncompartmental model method by PHOENIX WinNonlin software.

[6] = female, C57BL/6, po, mouse plasma, PC, 3 mg/kg
[7] = female, C57BL/6, mouse plasma, IV, 1 mg/kg
[8] = female, C57BL/6, mouse plasma, IV, 3 mg/kg
[9] = female, C57BL/6, mouse plasma, PO, 10 mg/kg

| IC50 [1] [µM] | microsomal CLint at 0.1 uM [2] [µL/min/mg] | Microsomal Stability Mouse % rem. 60 min [2] | microsomal CLint at 0.1 uM [3] [µL/min/mg] | Microsomal Stability Human % rem. 60 min [3] | hepatocyte CLint at 1 uM [4] [µL/min/1e6 cells] | Hepatocyte Stability Mouse % rem. 120 min [4] | AUC(0-t) [5, 8] [µg·h/mL] | half-life [5, 8] [h] | AUC(0-t) [5, 9] [µg·h/mL] | half-life [5, 9] [h] | Cl_obs ([5]; mouse plasma, IV, 3 mg/kg) [mL/h/kg] | Vz_obs ([5]; mouse plasma, IV, 3 mg/kg) [mL/kg] | Cl_obs ([5]; mouse plasma, PO, 10 mg/kg) [mL/h/kg] | Vz_obs ([5]; mouse plasma, PO, 10 mg/kg) [mL/kg] | SMILES | further results |
| --- | --- | --- | --- | --- | --- | --- | --- | --- | --- | --- | --- | --- | --- | --- | --- | --- |
| < 0.1 | < 116 | G (% remaining = 50-75%) | > 116 | E (% remaining = 0-25%) | < 8.2 | G (% remaining = 50-75%) |  |  |  |  |  |  |  |  | CN(C)C(=O)COc1cnc(N[C@H]2CC[C@@H](Oc3nc(N4CCOCC4)cc4ncccc34)CC2)nc1 [Compound 54, N,N-Dimethyl-2-((2-(((1s,4s)-4-((7-morpholino-1,6-naphthyridin-5-yl)oxy)cyclohexyl)amino)pyrimidin-5-yl)oxy)acetamide] | AUC(0-t) [5, 6]: 7.65 µg·h/mL; Cmax at 5 min [5, 6]: 2.22 µg/mL; half-life [5, 6]: 2.33 h; AUC(0-inf) ([5]; female, C57BL/6, po, mouse plasma, PC, 3 mg/kg, read-out: AUCINF—obs): 7.66 µg·h/mL; AUC(0-t) [5, 7]: 3.7 µg·h/mL; C0 [5, 7]: 3.31 µg/mL; Cmax at 5 min [5, 7]: 2.82 µg/mL; half-life [5, 7]: 1.69 h; AUC(0-inf) ([5]; female, C57BL/6, mouse plasma, IV, 1 mg/kg, read-out: AUCINF—obs): 3.71 µg·h/mL; AUC—% Extrap—obs ([5]; mouse plasma, IV, 1 mg/kg): 0.10%; Cl_obs ([5]; mouse plasma, IV, 1 mg/kg): 264 mL/h/kg; Vz_obs ([5]; mouse plasma, IV, 1 mg/kg): 646 mL/kg; AUC—% Extrap—obs ([5]; mouse plasma, PC, 3 mg/kg): 0.07%; Cl_obs ([5]; mouse plasma, PC, 3 mg/kg): 358^b mL/h/kg; Vz_obs ([5]; mouse plasma, PC, 3 mg/kg): 1205^a mL/kg; F ([5]; mouse, PC, 3 mg/kg): 74% |
| < 0.1 | < 116 | G (% remaining = 50-75%) | > 116 | F (% remaining = 25-50%) | < 8.2 | G (% remaining = 50-75%) | 7.96 | 1.67 | 18.2 | 2.17 | 367.01 | 885.15 | 548.06 | 1715.97 | O=C(COc1cnc(N[C@H]2CC[C@@H](Oc3nc(N4CCOCC4)cc4ncccc34)CC2)nc1)N1CCC1 [Compound 75, 1-(Azetidin-1-yl)-2-((2-(((1s,4s)-4-((7-morpholino-1,6-naphthyridin-5-yl)oxy)cyclohexyl)amino)pyrimidin-5-yl)oxy)ethan-1-one] | AUC(0-inf) ([5]; female, C57BL/6, mouse plasma, IV, 3 mg/kg, read-out: AUCINF—obs): 8.17 µg·h/mL; Cmax [5, 8]: 6.02 µg/mL; AUC(0-inf) ([5]; female, C57BL/6, mouse plasma, PO, 10 mg/kg, read-out: AUCINF—obs): 18.2 µg·h/mL; Cmax [5, 9]: 5.59 µg/mL; AUC—% Extrap—obs ([5]; mouse plasma, IV, 3 mg/kg): 2.63%; AUC—% Extrap—obs ([5]; mouse plasma, PO, 10 mg/kg): 0.07%; F ([5]; mouse, PO, 10 mg/kg): 69% |
| < 0.1 | < 116 | F (% remaining = 25-50%) | > 116 | E (% remaining = 0-25%) | < 8.2 | H (% remaining = 75-100%) | 4.34 | 2.21 | 6.77 | 2.07 | 685.7 | 2187.41 | 1476.26 | 4415.23 | CN(C)C(=O)Cn1c(=O)n(C2CCOCC2)c2nc(N[C@H]3CC[C@@H](Oc4nc(N5CCOCC5)cc5ncccc45)CC3)ncc21 [Compound 97, N,N-Dimethyl-2-(2-(((1s,4s)-4-((7-morpholino-1,6-naphthyridin-5-yl)oxy)cyclohexyl)amino)-8-oxo-9-(tetrahydro-2H-pyran-4-yl)-8,9-dihydro-7H-purin-7-yl)acetamide] | Rsq ([5]; IV, 3 mg/kg): 0.98; Rsq ([5]; PO, 10 mg/kg): 0.98; F ([5]; Mouse, PO 10 mg/kg vs IV 3 mg/kg): 47%; Cmax at 5 min [5, 8]: 4.86 µg/mL; AUC(0-inf) ([5]; female, C57BL/6, mouse plasma, IV, 3 mg/kg, read-out: AUCINF_obs): 4.38 µg·h/mL; Cmax at 5 min [5, 9]: 2.52 µg/mL; AUC(0-inf) ([5]; female, C57BL/6, mouse plasma, PO, 10 mg/kg, read-out: AUCINF_obs): 6.77 µg·h/mL; AUC_% Extrap_obs ([5]; mouse plasma, IV, 3 mg/kg): 0.77%; AUC_% Extrap_obs ([5]; mouse plasma, PO, 10 mg/kg): 0.03% |
